Measurements taken from patent US10807960B2, “Compounds, compositions, and methods for controlling biofilms” (KATHOLIEKE UNIVERSITEIT LEUVEN, priority 2015, dated 2020).
pIC50: −log10 of the molar value. Where two headings read alike, the source gives them in different places. Marks after values point to notes of the source that are not given here.

How the values were obtained:
[1] = test system: S. liquefaciens MG44; assay: static peg (Calgary Biofilm Device) anti-biofilm assay, crystal violet and OD600; format: cell-based, Serratia liquefaciens
[2] = test system: C. albicans SC5314; assay: inhibition of C. albicans biofilms, cell titer blue (CTB) quantification; format: cell-based, Candida albicans; settings: biofilm formation, read-out: BIC50
Procedure: The potential of the compounds to prevent C. albicans SC5314 biofilm formation was assessed using the cell titer blue (CTB) quantification method (26). For the CTB method, an overnight culture of C. albicans SC5314 was washed with PBS and a cell suspension of 10^6 cells/ml (OD600=0.1) was prepared in RPMI 1640 medium (pH 7.0). […] After 16 h of static incubation at 37° C., biofilms were washed and quantified with CTB as described previously.

[3] = test system: C. albicans SC5314 + E. coli MG1655; assay: mixed C. albicans/E. coli biofilm assay, selective plating; format: cell-based, Candida albicans; E. coli; settings: 37° C.; for CFUs % survival E. coli: E. coli in mixed biofilm with C. albicans
Procedure: Overnight cultures of C. albicans SC5314 (YPD) and E. coli MG1655 (TSB). were washed three times with PBS, after which they were diluted in RPMI medium to optical densities at 600 nm (OD600) of 1 and 0.01, respectively. Equal volumes of these cell suspensions were mixed, and 100 μl of this mixed cell suspension together with compound was added to the wells of a microtiter plate in triplicate. The concentrations 25 μM (0.0625% DMSO or ethanol) and 100 μM (0.25% DMSO or ethanol) were tested. After 24 h incubation at 37° C. the medium was removed and the biofilm was washed with PBS. Next, the cells were re-suspended in 100 μl of PBS by scraping off, sonication (1 min, 45 kHz, USC300-T; VWR, Radnor, Pa., USA) and vigorously pipetting up-and-down. Finally, dilution series were made, and quantification of E. coli MG1655 and C. albicans SC5314 populations was performed using selective plating on TSA plates containing 25 mg/L amphotericin B and YPD plates containing 100 μg/ml tetracycline, respectively. The percentage of C. albicans SC5314 and E. coli MG1655 cells was determined relative to the DMSO or ethanol control treatment.

[4] = test system: C. albicans SC5314 + S. epidermidis; assay: mixed C. albicans/S. epidermidis biofilm assay, selective plating; format: cell-based, Candida albicans; Staphylococcus epidermidis; settings: for CFUs % survival C.a.: C. albicans in mixed biofilm with S. epidermidis; for CFUs % survival C.a. / CFUs % survival S.e.: 37° C.; for CFUs % survival S.e.: S. epidermidis in mixed biofilm with C. albicans
Procedure: The concentrations 25 μM (0.0625% DMSO or ethanol) and 100 μM (0.25% DMSO or ethanol) were tested. After 24 h of incubation at 37° C., biofilms were washed with PBS and fresh medium with or without compounds was added. After further incubation for 48 h at 37° C., the biofilms were washed with PBS after which the cells were re-suspended in 100 μl of PBS by scraping off, sonication (1 min, 45 kHz, USC300-T; VWR, Radnor, Pa., USA) and vigorously pipetting up-and-down. Finally, the biofilm cells were diluted in PBS and plated on YPD agar plates containing 100 mg/L ampicillin and TSA plates containing 25 mg/L amphotericin B, to determine the number of fungal and bacterial CFUs after 2 days of incubation at 37° C., respectively. The percentage of C. albicans SC5314 and S. epidermidis cells was determined relative to the DMSO or ethanol control treatment.

[5] = test system: C. albicans SC5314 + S. aureus SH1000; assay: mixed C. albicans/S. aureus biofilm assay, selective plating; format: cell-based, Candida albicans; Staphylococcus aureus; settings: 37° C.; for CFUs % survival S.a.: S. aureus in mixed biofilm with C. albicans
Procedure: Overnight cultures of C. albicans SC5314 (YPD, 30° C.) and S. aureus SH1000 (LB, 37° C.) were washed with PBS, after which they were diluted in RPMI medium to obtain cell suspensions of 10^6 cells/ml for fungal cells and 10^8 cells/ml for bacteria. Equal volumes of these cell suspensions were mixed, and 100 μl of this mixed cell suspension together with compound was added to the wells of a microtiter plate in triplicate. The concentrations 25 μM (0.0625% DMSO or ethanol) and 100 μM (0.25% DMSO or ethanol) were tested. The plates were incubated at 37° C. for 90 min. After incubation the wells were washed twice with PBS, and 200 μl of the fresh RPMI medium with or without compounds was added in triplicate to the wells. After 24 h incubation at 37° C. the medium was removed and the biofilm was washed with PBS. Next, the cells were re-suspended in 100 μl of PBS by scraping off, sonication (1 min, 45 kHz, USC300-T; VWR, Radnor, Pa., USA) and vigorously pipetting up-and-down. Finally, dilution series were made, and quantification of S. aureus SH1000 and C. albicans SC5314 populations was performed using selective plating on TSA plates containing 25 mg/L amphotericin B and YPD plates containing 100 μg/ml tetracycline, respectively. The percentage of C. albicans SC5314 and S. aureus SH1000 cells was determined relative to the DMSO or ethanol control treatment.

[6] = test system: E. coli TG1 + P. aeruginosa PA14; assay: mixed E. coli/P. aeruginosa biofilm assay, crystal violet; format: cell-based; settings: 37° C. (Table 3)
Procedure: Overnight cultures of E. coli TG1 and P. aeruginosa PA14, were diluted 1/100 in the same vial of TSB 1/20 to form a mixed culture suspension.

[7] = test system: S. aureus SH1000; assay: static peg (Calgary Biofilm Device) anti-biofilm assay, crystal violet and OD600; settings: 37° C.
[8] = test system: S. epidermidis; assay: as above; settings: 37° C.
[9] = test system: E. coli TG1; assay: as above; settings: 37° C.
[10] = test system: P. aeruginosa PA14; assay: as above
[11] = test system: B. cepacia LMG1222T; assay: as above; settings: 25° C.
[12] = C. albicans in mixed biofilm with E. coli MG1655, 25 μM
[13] = C. albicans in mixed biofilm with E. coli MG1655, 100 μM
[14] = C. albicans in mixed biofilm with S. aureus SH1000, 25 μM
[15] = C. albicans in mixed biofilm with S. aureus SH1000, 100 μM
[16] = mixed biofilm formation, read-out: BIC50
[17] = planktonic growth of mixed culture, read-out: IC50
[18] = read-out: BIC50, biofilm formation
[19] = read-out: BIC50, biofilm formation, 25° C.
[20] = read-out: BIC50, biofilm formation, 37° C.
[21] = biofilm formation, 25° C., read-out: BIC50
[22] = planktonic growth, 25° C., read-out: IC50

Row | Compound | CFUs % survival C.a. [3, 12] [%] | CFUs % survival C.a. [3, 13] | CFUs % survival E. coli ([3]; 25 μM) [%] | CFUs % survival E. coli ([3]; 100 μM) | CFUs % survival C.a. ([4]; 25 μM) | CFUs % survival C.a. ([4]; 100 μM) | CFUs % survival S.e. ([4]; 25 μM) | CFUs % survival S.e. ([4]; 100 μM) | CFUs % survival C.a. [5, 14] [%] | CFUs % survival C.a. [5, 15] | CFUs % survival S.a. ([5]; 25 μM) [%] | CFUs % survival S.a. ([5]; 100 μM) | pIC50 [6, 16] | pIC50 [6, 17] | pIC50 ([7]; planktonic growth) | pIC50 [7, 18] | pIC50 ([8]; planktonic growth) | pIC50 [8, 18] | pIC50 ([9]; planktonic growth) | pIC50 [9, 18] | also measured
1 | CCCCCCCCn1c(-c2ccc(Cl)cc2)cnc1N [Compound 2] | 104.9 | 0.0* % | 158.6 | 0.1* % | <0.6* % | <0.2* % | 0.0* % | 0.0* % | 183.8 | 0.9* % | 87.7 | 0.2* % | 4.43 | 4.70 | 5.08 | 5.47 | ~4.95 | ~5.25 | 5.11 | ~5.19 | pIC50 ([1]; biofilm formation, read-out: BIC50): 4.73; pIC50 ([1]; planktonic growth, read-out: IC50): 4.42; pIC50 [2]: 5.21; biofilm formation of C. albicans/S. epidermidis (in words) ([4]; 25 μM): completely inhibited; pIC50 ([10]; planktonic growth, 37° C.): 5.00; pIC50 [10, 19]: 5.40; pIC50 [10, 20]: 3.93; pIC50 ([11]; planktonic growth): < 3.40; pIC50 [11, 18]: 3.84
2 | CC(C)CNc1ncc(-c2ccc(Cl)cc2)[nH]1 [Compound 3] | 143.4 | 59.6* % | 138.5 | 63.0* % | 58.3* % | 235.1% | 64.6* % | 13.2* % | 165.7 | 141.3% | 124.6 | 51.8* % | 5.13 | < 3.40 | ~3.76 | ~3.70 | 4.06 | < 3.40 | 4.52 | 3.96 | pIC50 [1, 21]: 4.98; pIC50 [1, 22]: 3.81; pIC50 ([2]; 37° C.): 4.03; pIC50 ([10]; planktonic growth, 37° C.): < 3.40; pIC50 [10, 19]: 6.05; pIC50 [10, 20]: < 3.40; pIC50 ([11]; planktonic growth): < 3.40; pIC50 [11, 18]: 4.06
3 | Clc1ccc(-c2cnc(NC3CCCC3)[nH]2)cc1 [Compound 5] | 100.8 | 38.3* % | 100.6 | 105.6* % | 167.9% | 594.7% | 72.0% | 2.3* % | 232.4 | 120.6% | 75.4 | 74.5* % | 6.30 | < 3.40 | 4.15 | 4.15 | 4.40 | < 3.40 | 4.77 | ~4.34 | pIC50 [1, 21]: 5.06; pIC50 [1, 22]: 3.90; pIC50 ([2]; 37° C.): 4.19; activity against S. epidermidis in the C. albicans/S. epidermidis biofilm (in words) ([4]; 100 μM): complete inhibition; pIC50 ([10]; planktonic growth, 37° C.): < 3.40; pIC50 [10, 19]: 4.87; pIC50 [10, 20]: < 3.40; pIC50 ([11]; planktonic growth): < 3.40; pIC50 [11, 18]: 3.48
